Structures can show the parent of a compound that is named as a salt.
Biological target: T1, human DPP-IV (Homo sapiens, UniProt P27487)
T1 construct: made in house; host or cells: Pichia pastoris (purified from the culture medium)
Assay: DPP-IV activity assay (colorimetric / fluorometric)
Type: biochemical
Conditions: natural human DPP-IV from human plasma pool or recombinant human DPP-IV; 37° C., pH 7.8
Protocol: Activity of DPP-IV inhibitors are tested with natural human DPP-IV derived from a human plasma pool or with recombinant human DPP-IV. Human citrate plasma from different donors is pooled, filtered through a 0.2 micron membrane under sterile conditions and aliquots of 1 mL are shock frozen and stored at […]. until used. In the colorimetric DPP-IV assay 5 to 10 μL human plasma and in the fluorometric assay 1.0 μL of human plasma in a total assay volume of 100 μL is used as an enzyme source. The cDNA of the human DPP-IV sequence of amino acid 31- to 766, restricted for the N-terminus and the transmembrane domain, is cloned into pichia pastoris. […]
In the colorimetric assay H-Ala-Pro-pNA.HCl (Bachem L-1115) is used as a substrate. […] Fluorescence is detected in a Perkin Elmer Luminescence Spectrometer LS 50B at an excitation wavelength of 400 nm and an emission wavelength of 505 nm continuously every 15 seconds for 10 to 30 minutes. Initial rate constants are calculated by best fit linear regression. The absorption of pNA liberated from the colorimetric substrate is detected in a Packard SpectraCount at […] continuously every 2 minutes for 30 to 120 minutes. Initial rate constants are calculated by best fit linear regression. […]
IC50 determinations of test compounds are calculated by non-linear best fit regression of the DPP-IV inhibition of at least 5 different compound concentrations. […]

T1 sequence (P27487 31-766): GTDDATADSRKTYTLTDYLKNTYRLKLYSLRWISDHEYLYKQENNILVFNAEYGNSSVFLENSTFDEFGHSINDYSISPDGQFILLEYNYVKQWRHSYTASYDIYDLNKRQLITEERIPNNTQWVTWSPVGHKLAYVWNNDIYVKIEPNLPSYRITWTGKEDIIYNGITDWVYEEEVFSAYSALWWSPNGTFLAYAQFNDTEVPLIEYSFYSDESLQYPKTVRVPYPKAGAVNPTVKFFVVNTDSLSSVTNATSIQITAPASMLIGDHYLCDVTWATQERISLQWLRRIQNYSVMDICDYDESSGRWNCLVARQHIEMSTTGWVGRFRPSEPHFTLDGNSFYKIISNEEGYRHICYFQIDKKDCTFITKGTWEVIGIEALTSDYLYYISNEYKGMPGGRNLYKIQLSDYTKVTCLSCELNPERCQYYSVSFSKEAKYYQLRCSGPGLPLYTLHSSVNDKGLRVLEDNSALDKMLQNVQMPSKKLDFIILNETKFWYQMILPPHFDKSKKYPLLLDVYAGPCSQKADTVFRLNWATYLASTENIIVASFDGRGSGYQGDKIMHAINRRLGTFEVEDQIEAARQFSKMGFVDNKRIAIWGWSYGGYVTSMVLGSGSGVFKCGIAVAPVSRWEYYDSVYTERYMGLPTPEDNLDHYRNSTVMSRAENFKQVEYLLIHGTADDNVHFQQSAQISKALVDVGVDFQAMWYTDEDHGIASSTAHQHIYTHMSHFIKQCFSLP

`CC(C)(CCn1cnc(-c2cccnc2)c1)NCC(=O)N1CCC[C@H]1C#N` [(2S)-1-{[1,1-Dimethyl-3-(4-pyridin-3-yl-imidazol-1-yl)-propylamino]-acetyl}-pyrrolidine-2-carbonitrile fumarate] was tested, and the IC50 was 0.0212 µM and the Ki was 0.0227 µM.

From US20100093808A1, “SALT AND POLYMORPH OF A DPP-IV INHIBITOR” (priority 2005, published 2010)
